Patent US20090117563A1, “Identification of TRPML3 (MCOLN3) as a Salty Taste Receptor and Use in Assays for Identifying Taste (Salty) Modulators and/or Therapeutics that Modulate Sodium Transport, Absorption or Excretion and/or Aldosterone and/or Vasopressin Production or Release” (priority 2007, published 2009)

Molecular target: T1, A419P TRPML3 (Homo sapiens, UniProt Q8TDD5, A419P)
T1 construct: expressed in transfected cells
T1 sequence (Q8TDD5 1-553 A419P): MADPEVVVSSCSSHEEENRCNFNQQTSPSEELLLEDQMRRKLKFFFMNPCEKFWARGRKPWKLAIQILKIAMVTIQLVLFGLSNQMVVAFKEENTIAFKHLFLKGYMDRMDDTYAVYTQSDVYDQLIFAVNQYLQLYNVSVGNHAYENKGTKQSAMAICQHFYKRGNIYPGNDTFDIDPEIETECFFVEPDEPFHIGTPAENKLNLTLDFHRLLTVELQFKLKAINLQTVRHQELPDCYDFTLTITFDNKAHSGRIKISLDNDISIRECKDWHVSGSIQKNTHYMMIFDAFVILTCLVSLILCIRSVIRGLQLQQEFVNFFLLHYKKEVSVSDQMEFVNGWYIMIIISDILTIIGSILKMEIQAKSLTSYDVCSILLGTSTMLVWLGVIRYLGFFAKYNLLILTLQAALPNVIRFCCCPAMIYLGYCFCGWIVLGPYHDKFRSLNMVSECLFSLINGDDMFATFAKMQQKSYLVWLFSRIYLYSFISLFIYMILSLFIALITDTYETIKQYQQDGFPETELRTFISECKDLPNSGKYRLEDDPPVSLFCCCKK
Assay: IonWorks PPC patch clamp, inducible CHO-K1 cell line expressing A419P TRPML3
Type: cell-based
Details: 4 mM GdCl3 solution
From the text: Different versions of human TRPML3 can be assayed, included but not limited to a wild-type version and a gain of function mutant version encoding an A419P substitution. TRPML3 can be expressed in CHO-K1 cells by one of three methods: (i) transient transfection (ii) BacMam transduction or (iii) a stable transfection and TRPML3 function measured using the perforated patch clamp technique on an IonWorks Quattro instrument (MDS Analytical Technologies). Cells are dissociated with Detachin cell detachment solution (Genlantis), centrifuged, and resuspended in external recording buffer (150 mM NaCl, 2 mM KCl, 1.5 mM CaCl2, 1 mM MgCl2, 10 mM HEPES pH 7.4 with NaOH). […]
The following description illustrates the IonWorks screening assay to identify compounds that modulate (activate or block) TRPML3 function. […] In each scan currents are measured as the voltage is modified (see example voltage command trace in FIG. 29).
Compounds will be applied at concentrations between ˜1 uM and 100 uM. […] Compounds that enhance TRPML3 by affecting the voltage dependent rectification will be preferentially detected at −40 mV where the rectification is strong while compounds that block TRPML3 will be preferentially detected at −120 mV where the TRPML3 currents are larger. To quantitate the effect of a compound on TRPML3 function, we use the following formula: [(A−Ao)/(B−Bo)]×100. […]

[Cl][Gd]([Cl])[Cl] [gadolinium, gadolinium chloride]
effect on TRPML3 current (IonWorks scan): blocks TRPML3 current
